17 compounds from PubChem BioAssay AID256 (DTP/NCI, 2004) can be followed below.

Molecules are shown by their SMILES. Toxic doses and inconclusive results are not listed.

For this experiment, the system named is CD2F1 mice, L1210 leukemia ip, survival T/C. Briefly: NCI In Vivo Anticancer Drug Screen. Data for tumor model L1210 Leukemia (intraperitoneal) in CD2F1 (CDF1) mice. The settings on record: higher = longer survival. The procedure, abridged:
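Antitumor effect is scored in animals hosting a serially transplanted tumor. Values compare compound-dosed animals against vehicle-only controls as a simple quotient.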

Where [1] appears, read: endpoint: mean survival time, dose: 50.0 mg/kg/injection, schedule: Q01DX009 (ip), vehicle: Klucel (hydroxypropylcellulose) (HPC).
The mark [2] stands for this setting: endpoint: mean survival time, dose: 100.0 mg/kg/injection, schedule: Q01DX009 (ip), vehicle: Klucel (hydroxypropylcellulose) (HPC).
The mark [3] stands for this setting: endpoint: mean survival time, dose: 200.0 mg/kg/injection, schedule: Q01DX009 (ip), vehicle: Klucel (hydroxypropylcellulose) (HPC).
[4] abbreviates: endpoint: mean survival time, dose: 12.5 mg/kg/injection, schedule: Q01DX009 (ip), vehicle: saline.
The mark [5] stands for this setting: endpoint: mean survival time, dose: 25.0 mg/kg/injection, schedule: Q01DX009 (ip), vehicle: saline.
[6] abbreviates: endpoint: mean survival time, dose: 100.0 mg/kg/injection, schedule: Q04DX003 (ip), vehicle: saline with Tween-80.
Setting [7] is: endpoint: mean survival time, dose: 200.0 mg/kg/injection, schedule: Q04DX003 (ip), vehicle: saline with Tween-80.
Where [8] appears, read: endpoint: mean survival time, dose: 400.0 mg/kg/injection, schedule: Q04DX003 (ip), vehicle: saline with Tween-80.
[9] abbreviates: endpoint: mean survival time, dose: 100.0 mg/kg/injection, schedule: Q01DX001 (ip), vehicle: saline with Tween-80.
The mark [10] stands for this setting: endpoint: mean survival time, dose: 400.0 mg/kg/injection, schedule: Q01DX009 (ip), vehicle: saline with Tween-80.
Setting [11] is: endpoint: mean survival time, dose: 25.0 mg/kg/injection, schedule: Q01DX009 (ip), vehicle: saline with Tween-80.
The mark [12] stands for this setting: endpoint: mean survival time, dose: 50.0 mg/kg/injection, schedule: Q01DX009 (ip), vehicle: saline with Tween-80.

`COc1ccc(NC(=O)NCc2cccc(Cl)c2)cc1`: the T/C runs as follows: under setting [1], 102 % of control; under setting [2], 114 % of control; under setting [3], 117 % of control.
On to `Cc1csc(NC(=O)Nc2ccc(F)cc2[N+](=O)[O-])n1`, for which the T/C under setting [4] is 103 % of control; the T/C under setting [5] was 112 % of control; the T/C (endpoint: mean survival time, dose: 50.0 mg/kg/injection, schedule: Q01DX009 (ip), vehicle: saline) was 103 % of control.
As for `COc1cccc(C2=CCCCCC2)c1OC`, the T/C reads like this: under setting [6], 98 % of control; under setting [7], 101 % of control; under setting [8], 102 % of control.
As for `CCCN(C)C(=O)N(CCCl)N=O`, the T/C is 306 % of control (endpoint: mean survival time, dose: 39.0 mg/kg/injection, schedule: Q01DX001 (ip), vehicle: other); 197 % of control (endpoint: mean survival time, dose: 62.5 mg/kg/injection, schedule: Q01DX001 (ip), vehicle: other); 448 % of control (endpoint: mean survival time, dose: 78.0 mg/kg/injection, schedule: Q01DX001 (ip), vehicle: other); 320 % of control (endpoint: mean survival time, dose: 125.0 mg/kg/injection, schedule: Q01DX001 (ip), vehicle: other); 102 % of control (endpoint: mean survival time, dose: 250.0 mg/kg/injection, schedule: Q01DX001 (ip), vehicle: other).
Regarding `COc1cc([C@@H]2c3cc4c(cc3C[C@H]3COC(=O)[C@@H]32)OCO4)cc(OC)c1OC`, the T/C (endpoint: mean survival time, dose: 6.25 mg/kg/injection, schedule: Q01DX015 (ip), vehicle: saline) is 111 % of control; the T/C (endpoint: mean survival time, dose: 12.5 mg/kg/injection, schedule: Q01DX015 (ip), vehicle: saline) was 118 % of control; the T/C (endpoint: mean survival time, dose: 25.0 mg/kg/injection, schedule: Q01DX015 (ip), vehicle: saline) was 106 % of control.
As to `CC(C)CCn1cnc2c(=S)nc(N)[nH]c21`, the T/C (endpoint: mean survival time, dose: 50.0 mg/kg/injection, schedule: Q01DX001 (ip), vehicle: saline with Tween-80) was 118 % of control and the T/C under setting [9] is 95 % of control.
For `NC(=O)CC(NC(=O)CCl)C(=O)O` (stereo unspecified), the T/C is, setting by setting: under setting [6], 101 % of control; under setting [7], 92 % of control; under setting [8], 92 % of control.
`Nc1nc(N)c(-c2cccc(Cl)c2)c(CBr)n1`: the T/C is 102 % of control (endpoint: mean survival time, dose: 6.25 mg/kg/injection, schedule: Q01DX009 (ip), vehicle: saline); 103 % of control under setting [4]; 109 % of control under setting [5].
As for `COC1CCC([NH-])(C[NH-])C(c2ccc3c(c2)OCO3)O1.[Cl][Pt+2][Cl]` (stereo unspecified), the T/C runs as follows: (endpoint: median survival time, dose: 8.25 mg/kg/injection, schedule: Q04DX003 (ip), vehicle: saline) 103 % of control; (endpoint: median survival time, dose: 17.5 mg/kg/injection, schedule: Q04DX003 (ip), vehicle: saline) 105 % of control; (endpoint: median survival time, dose: 35.0 mg/kg/injection, schedule: Q04DX003 (ip), vehicle: saline) 110 % of control; (endpoint: median survival time, dose: 70.0 mg/kg/injection, schedule: Q04DX003 (ip), vehicle: saline with Tween-80) 108 % of control; (endpoint: median survival time, dose: 70.0 mg/kg/injection, schedule: Q04DX003 (ip), vehicle: saline) 106 % of control; (endpoint: median survival time, dose: 140.0 mg/kg/injection, schedule: Q04DX003 (ip), vehicle: saline with Tween-80) 113 % of control.
For the compound `CC1(C)C=CC=C(C(=O)O)C=C1`, the T/C by setting is: (endpoint: mean survival time, dose: 100.0 mg/kg/injection, schedule: Q01DX009 (ip), vehicle: saline with Tween-80) 100 % of control; under setting [6], 98 % of control; (endpoint: mean survival time, dose: 200.0 mg/kg/injection, schedule: Q01DX009 (ip), vehicle: saline with Tween-80) 92 % of control; under setting [7], 98 % of control; under setting [10], 89 % of control; under setting [8], 94 % of control.
As to `O=C(O)CC1NCCC12OCCO2` (stereo unspecified), the T/C was 97 % of control (endpoint: mean survival time, dose: 100.0 mg/kg/injection, schedule: Q01DX001 (ip), vehicle: saline); 98 % of control (endpoint: mean survival time, dose: 100.0 mg/kg/injection, schedule: Q01DX009 (ip), vehicle: saline); 102 % of control (endpoint: mean survival time, dose: 200.0 mg/kg/injection, schedule: Q01DX001 (ip), vehicle: saline); 98 % of control (endpoint: mean survival time, dose: 200.0 mg/kg/injection, schedule: Q01DX009 (ip), vehicle: saline); 92 % of control (endpoint: mean survival time, dose: 400.0 mg/kg/injection, schedule: Q01DX001 (ip), vehicle: saline); 101 % of control (endpoint: mean survival time, dose: 400.0 mg/kg/injection, schedule: Q01DX009 (ip), vehicle: saline).
As to `CN(C)C1CCC(Nc2nc(Nc3cc(Cl)cc(Cl)c3)nc3ccccc23)CC1` (stereo unspecified), the T/C is, setting by setting: under setting [11], 102 % of control; (endpoint: mean survival time, dose: 25.0 mg/kg/injection, schedule: Q04DX003 (ip), vehicle: saline with Tween-80) 101 % of control; under setting [12], 96 % of control; (endpoint: mean survival time, dose: 50.0 mg/kg/injection, schedule: Q04DX003 (ip), vehicle: saline with Tween-80) 103 % of control; under setting [6], 98 % of control.
As to `CCOC(=O)CCC(NC(=O)c1cccc(N(C)C=O)c1)C(=O)OCC` (stereo unspecified), the T/C was 110 % of control under setting [9]; 100 % of control under setting [6]; 110 % of control (endpoint: mean survival time, dose: 200.0 mg/kg/injection, schedule: Q01DX001 (ip), vehicle: saline with Tween-80); 100 % of control under setting [7]; 113 % of control (endpoint: mean survival time, dose: 400.0 mg/kg/injection, schedule: Q01DX001 (ip), vehicle: saline with Tween-80); 98 % of control under setting [8].
Consider `O=c1[nH]c(=O)n([C@H]2CCCO2)cc1F`, for which the T/C reads like this: (endpoint: mean survival time, dose: 25.0 mg/kg/injection, schedule: Q01DX005 (ip), vehicle: other) 93 % of control; under setting [11], 97 % of control; (endpoint: mean survival time, dose: 25.0 mg/kg/injection, schedule: Q04DX003 (ip), vehicle: saline) 90 % of control; (endpoint: mean survival time, dose: 50.0 mg/kg/injection, schedule: Q01DX005 (ip), vehicle: other) 93 % of control; under setting [12], 101 % of control; (endpoint: mean survival time, dose: 50.0 mg/kg/injection, schedule: Q04DX003 (ip), vehicle: saline) 100 % of control. For the same compound, the T/C was 114 % of control (endpoint: mean survival time, dose: 100.0 mg/kg/injection, schedule: Q01DX005 (ip), vehicle: other); 105 % of control (endpoint: mean survival time, dose: 100.0 mg/kg/injection, schedule: Q04DX003 (ip), vehicle: saline); 106 % of control (endpoint: mean survival time, dose: 112.5 mg/kg/injection, schedule: Q04DX003 (ip), vehicle: saline with Tween-80); 104 % of control (endpoint: mean survival time, dose: 112.5 mg/kg/injection, schedule: Q04DX003 (iv), vehicle: saline with Tween-80); 116 % of control (endpoint: mean survival time, dose: 225.0 mg/kg/injection, schedule: Q04DX003 (ip), vehicle: saline with Tween-80); 113 % of control (endpoint: mean survival time, dose: 225.0 mg/kg/injection, schedule: Q04DX003 (iv), vehicle: saline with Tween-80). The T/C was 95 % of control (endpoint: mean survival time, dose: 400.0 mg/kg/injection, schedule: Q01DX005 (ip), vehicle: other); 104 % of control under setting [10]; 158 % of control (endpoint: mean survival time, dose: 400.0 mg/kg/injection, schedule: Q04DX003 (ip), vehicle: saline); 153 % of control (endpoint: mean survival time, dose: 450.0 mg/kg/injection, schedule: Q04DX003 (ip), vehicle: saline with Tween-80).
As to `Cc1cn(C2CC3OP(N(C)C)OCC3O2)c(=O)[nH]c1=O` (stereo unspecified), the T/C was 100 % of control (endpoint: mean survival time, dose: 12.5 mg/kg/injection, schedule: Q01DX005 (ip), vehicle: water); 101 % of control (endpoint: mean survival time, dose: 25.0 mg/kg/injection, schedule: Q01DX005 (ip), vehicle: water); 98 % of control (endpoint: mean survival time, dose: 50.0 mg/kg/injection, schedule: Q01DX005 (ip), vehicle: water); 105 % of control (endpoint: mean survival time, dose: 100.0 mg/kg/injection, schedule: Q01DX005 (ip), vehicle: water); 101 % of control (endpoint: mean survival time, dose: 200.0 mg/kg/injection, schedule: Q01DX005 (ip), vehicle: water).
On to `O=c1[nH]cnc2nc(SCc3ccc([N+](=O)[O-])cc3)[nH]c12`, for which the T/C by setting is: under setting [1], 90 % of control; under setting [2], 94 % of control; under setting [3], 105 % of control.
As to `CC(=O)OC(C)C(OC(C)=O)C(OC(C)=O)C(C=O)OC(C)=O` (stereo unspecified), the T/C is, setting by setting: (endpoint: mean survival time, dose: 100.0 mg/kg/injection, schedule: Q01DX001 (ip), vehicle: Klucel (hydroxypropylcellulose) (HPC)) 101 % of control; (endpoint: mean survival time, dose: 200.0 mg/kg/injection, schedule: Q01DX001 (ip), vehicle: Klucel (hydroxypropylcellulose) (HPC)) 101 % of control; (endpoint: mean survival time, dose: 400.0 mg/kg/injection, schedule: Q01DX001 (ip), vehicle: Klucel (hydroxypropylcellulose) (HPC)) 101 % of control.
